# Laboratory results: patent US20170002011A1, “BENZENE SULFONAMIDES AS CCR9 INHIBITORS” (NORGINE B.V., priority 2013, published 2017)
# What was measured:
# [1] = biological target: T1, CCR9 (Homo sapiens, UniProt P51686); assay: FLIPR calcium flux assay using hCCR9 over expressed cells (TECK stimulation); type: cell-based; design: expressed in transfected cells; host or cells: Chem-1 cells overexpressing hCCR9; conditions: Chem1-hCCR9 overexpressing cells; Ki determined from IC50 of TECK-induced intracellular calcium increase
# T1 sequence (P51686 1-369): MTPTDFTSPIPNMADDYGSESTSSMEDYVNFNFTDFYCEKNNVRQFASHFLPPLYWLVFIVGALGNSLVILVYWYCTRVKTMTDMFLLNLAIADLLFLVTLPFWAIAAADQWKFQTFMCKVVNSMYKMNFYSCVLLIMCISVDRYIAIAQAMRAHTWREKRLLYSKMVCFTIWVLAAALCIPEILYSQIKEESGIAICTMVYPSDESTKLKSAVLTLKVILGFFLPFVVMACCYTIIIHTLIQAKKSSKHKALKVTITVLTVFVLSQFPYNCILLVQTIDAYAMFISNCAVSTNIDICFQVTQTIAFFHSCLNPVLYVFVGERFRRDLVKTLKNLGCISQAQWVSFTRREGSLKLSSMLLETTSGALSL
# Procedure: Biological Activity: FLIPR Assay Using hCCR9 Over Expressed Cells
# A calcium flux assay was used to determine the ability of the compounds to interfere with the binding between CCR9 and its chemokine ligand (TECK) in Cheml-hCCR9 overexpressing cells. hCCR9 overexpressing cells were seeded (25,000 cells/well) into black Poly-D-Lysine coated clear bottom 96-well plates (BD Biosciences, Cat #356640) and incubated overnight at 37° C./5% CO2 in a humidified incubator. Media was aspirated and cells washed twice with 100 μL assay buffer (1×HBSS, 20 mM HEPES) containing 2.5 mM Probenecid. A 0.3× Fluo-4 NW calcium dye was prepared in assay buffer containing 5 mM Probenecid and stored in the dark. Each well was loaded with 100 μL of 0.3× Fluo-4 NW calcium dye and incubated at 37° C./5% CO2 for 60 minutes and then at room temperature for 30 minutes. A half-log serially diluted concentration response curve was prepared at a 3× final assay concentration for each compound (10 μM−0.1 nM final assay concentration) and 50 μL of the compound then transferred to the cells (150 μL final volume) for 60 minutes prior to stimulation (30 minutes at 37° C./5% CO2 and 30 minutes at room temperature). TECK was diluted to 4× its ECso in assay buffer (containing 0.1% [w/v] bovine serum albumin[BSA]) and 50 μL dispensed through the fluorometric imaging plate reader (FLIPR) instrument to stimulate the cells (200 μL final volume). The increase in intracellular calcium levels was measured with the FLIPR instrument. The potency of the compound as a CCR9 antagonist was calculated as an IC50 using GraphPad Prism software (variable slope four parameter). The Ki of the compound was determined from the IC50 values using the following equation.
# (§1) Ki calculation: IC50/1+(Agonist (TECK) conc. used in assay/EC50 of agonist (TECK) generated on day of experiment)
# [2] = biological target: T1, CCR9; assay: FLIPR calcium flux assay using MOLT4 cells (TECK stimulation); type: cell-based; design: endogenous in cells; host or cells: MOLT4 (human T-cell line); conditions: MOLT4 cells (a human T-cell line); Ki determined from IC50 of TECK-induced intracellular calcium increase
# Procedure: Biological Activity: FLIPR Assay Using MOLT4 Cells
# A calcium flux assay was used to determine the ability of the compounds to interfere with the binding between CCR9 and its chemokine ligand (TECK) in MOLT4 cells (a human T-cell line). MOLT4 cells were seeded (100,000 cells/well) in coming cell culture plates (Cat #3603) in assay buffer (lx HBSS, 20 mM HEPES) containing 2.5 mM Probenecid. The plate was centrifuged at 1200 rpm for 3 minutes and incubated at 37° C./5% CO2 for 2 hours. A 0.3× Fluo-4 NW calcium dye was prepared in assay buffer containing 5 mM Probenecid and stored in the dark. Each well was loaded with 25 μL of 0.3× Fluo-4 NW calcium dye and incubated at 37 C/5% CO2 for 60 minutes and then at room temperature for 30 minutes. A half-log serially diluted concentration response curve was prepared at a 4× concentration for each (10 μM-0.1 nM final assay concentration) and 25 μL of the compound then transferred to the cells (100 μL final volume) for 60 minutes prior to stimulation (30 minutes at 37° C./5% CO2 and 30 minutes at room temperature). TECK was diluted to 5× its EC50 in assay buffer (containing 0.1% [w/v] bovine serum albumin [BSA]) and 25 μL dispensed through the FLIPR instrument to stimulate the cells (125 μL final volume). The increased in intracellular calcium levels was measured with the FLIPR instrument. The potency of the compound as CCR9 antagonist was calculated as an IC50 using GraphPad Prism software (variable slope four parameter). The Ki of the compound was determined from the IC50 values using the following equation.
# as §1
smiles,measurement,setting,value
"CC(C)c1cc2nccc(NS(=O)(=O)c3ccc(C(C)(C)C)cc3)n2n1 [Compound 79, 4-(tert-butyl)-N-(2-isopropylpyrazolo[1,5-a]pyrimidin-7-yl)benzenesulfonamide]",Ki,[1],1520 nM
same,Ki,[2],295 nM
Cn1ccc(-c2cc3c(C#N)ccc(NS(=O)(=O)c4ccc(C(C)(C)C)cc4)n3n2)c1 [Compound 159],Ki,[1],136 nM
same,Ki,[2],96 nM
Cc1cncc(-c2cc3c(Cl)ccc(NS(=O)(=O)c4ccc(C(C)(C)C)cc4)n3n2)c1 [Compound 199],Ki,[1],63 nM
same,Ki,[2],105 nM
"Cc1cc2c(C#N)ccc(NS(=O)(=O)c3ccc(C(C)(C)C)cc3)n2n1 [Compound 95, 4-(tert-butyl)-N-(4-cyano-2-methylpyrazolo[1,5-a]pyridin-7-yl)benzene sulfonamide]",Ki,[1],110 nM
same,Ki,[2],2 nM
"CC(C)(C)c1ccc(S(=O)(=O)Nc2ccc(Cl)c3cc(-c4cccnc4)nn23)cc1 [Compound 110, 4-(tert-butyl)-N-(4-chloro-2-(pyridin-3-yl)pyrazolo[1,5-a]pyridin-7-yl)benzenesulfonamide]",Ki,[1],394 nM
same,Ki,[2],115 nM
Cc1ncccc1-c1cc2c(C#N)ccc(NS(=O)(=O)c3ccc(C(C)(C)C)cc3)n2n1 [Compound 204],Ki,[1],121 nM
same,Ki,[2],37 nM
Cc1ncccc1-c1cc2c(Cl)ccc(NS(=O)(=O)c3ccc(C(C)(C)C)cc3)n2n1 [Compound 203],Ki,[1],149 nM
same,Ki,[2],85 nM
Cn1ccc(-c2cc3c(C#N)ccc(NS(=O)(=O)c4ccc(C(C)(C)C)cc4)n3n2)n1 [Compound 184],Ki,[1],17 nM
same,Ki,[2],22 nM
COc1ncccc1-c1cc2c(C#N)ccc(NS(=O)(=O)c3ccc(C(C)(C)C)cc3)n2n1 [Compound 202],Ki,[1],127 nM
same,Ki,[2],107 nM
Cc1c(-c2cc3c(C#N)ccc(NS(=O)(=O)c4ccc(C(C)(C)C)cc4)n3n2)cnn1C [Compound 190],Ki,[1],114 nM
same,Ki,[2],54 nM
COc1cncc(-c2cc3c(C#N)ccc(NS(=O)(=O)c4ccc(C(C)(C)C)cc4)n3n2)c1 [Compound 161],Ki,[1],127 nM
same,Ki,[2],62 nM
Cc1cc(-c2cc3c(C#N)ccc(NS(=O)(=O)c4ccc(C(C)(C)C)cc4)n3n2)n(C)n1 [Compound 158],Ki,[1],186 nM
same,Ki,[2],48 nM
"CCc1cc2nccc(NS(=O)(=O)c3ccc(C(C)(C)C)cc3)n2n1 [Compound 85, 4-(tert-butyl)-N-(2-ethylpyrazolo[1,5-a]pyrimidin-7-yl)benzenesulfonamide]",Ki,[1],1800 nM
same,Ki,[2],111 nM
COc1ccc(-c2cc3c(C#N)ccc(NS(=O)(=O)c4ccc(C(C)(C)C)cc4)n3n2)cn1 [Compound 198],Ki,[1],54 nM
same,Ki,[2],26 nM
Cc1ccc(-c2cc3c(C#N)ccc(NS(=O)(=O)c4ccc(C(C)(C)C)cc4)n3n2)cn1 [Compound 206],Ki,[1],128 nM
same,Ki,[2],64 nM
"CC(C)(C)c1ccc(S(=O)(=O)Nc2ccnc3cc(C4CC4)nn23)cc1 [Compound 37, 4-(tert-butyl)-N-(2-cyclopropylpyrazolo[1,5-a]pyrimidin-7-yl)benzenesulfonamide]",Ki,[1],1950 nM
same,Ki,[2],703 nM
"Cc1cc2nccc(NS(=O)(=O)c3ccc(-c4cnco4)cc3)n2n1 [Compound 1, N-(2-methylpyrazolo[1,5-a]pyrimidin-7-yl)-4-(oxazol-5-yl)benzenesulfonamide]",Ki,[1],456 nM
same,Ki,[2],19 nM
CC(C)(C)c1ccc(S(=O)(=O)Nc2ccc(Cl)c3cc(C4CC4)nn23)cc1 [Compound 105],Ki,[1],56 nM
same,Ki,[2],285 nM
CCn1cc(-c2cc3c(C#N)ccc(NS(=O)(=O)c4ccc(C(C)(C)C)cc4)n3n2)cn1 [Compound 189],Ki,[1],22 nM
same,Ki,[2],10 nM
"CC(C)(C)c1ccc(S(=O)(=O)Nc2ccc(C#N)c3cc(-c4cccnc4)nn23)cc1 [Compound 149, 4-(tert-butyl)-N-(4-cyano-2-(pyridin-3-yl)pyrazolo[1,5-a]pyridin-7-yl)benzenesulfonamide]",Ki,[1],159 nM
same,Ki,[2],87 nM
"CC(C)(C)c1ccc(S(=O)(=O)Nc2ccc(C#N)c3cc(-c4cn[nH]c4)nn23)cc1 [Compound 164, 4-(tert-butyl)-N-(4-cyano-2-(1H-pyrazol-4-yl)pyrazolo[1,5-a]pyridin-7-yl)benzenesulfonamide]",Ki,[1],112 nM
same,Ki,[2],34 nM
"CC(C)(C)c1ccc(S(=O)(=O)Nc2ccc(Cl)c3cc(-c4ccsc4C(=O)O)nn23)cc1 [Compound 172, 3-(7-((4-(tert-butyl)phenyl)sulfonamido)-4-chloropyrazolo[1,5-a]pyridin-2-yl)thiophene-2-carboxylic acid]",Ki,[1],129 nM
same,Ki,[2],79 nM
"CC(C)(C)c1ccc(S(=O)(=O)Nc2c(C#N)ccc3cc(-c4cccnc4)nn23)cc1 [Compound 180, 4-(tert-butyl)-N-(6-cyano-2-(pyridin-3-yl)pyrazolo[1,5-a]pyridin-7-yl)benzenesulfonamide]",Ki,[1],133 nM
same,Ki,[2],30 nM
Cn1cnc(-c2cc3c(Cl)ccc(NS(=O)(=O)c4ccc(C(C)(C)C)cc4)n3n2)c1 [Compound 182],Ki,[1],168 nM
same,Ki,[2],80 nM
"CC(C)(C)c1ccc(S(=O)(=O)Nc2ccc(Cl)c3cc(-c4cnco4)nn23)cc1 [Compound 169, 4-(tert-butyl)-N-(4-chloro-2-(oxazol-5-yl)pyrazolo[1,5-a]pyridin-7-yl)benzenesulfonamide]",Ki,[1],343 nM
same,Ki,[2],164 nM
Cn1nnc(-c2cc3c(Cl)ccc(NS(=O)(=O)c4ccc(C(C)(C)C)cc4)n3n2)n1 [Compound 192],Ki,[1],183 nM
same,Ki,[2],161 nM
Cn1nccc1-c1cc2c(C#N)ccc(NS(=O)(=O)c3ccc(C(C)(C)C)cc3)n2n1 [Compound 152],Ki,[1],125 nM
same,Ki,[2],41 nM
O=S(=O)(Nc1ccc(Cl)c2cc(-c3cccnc3)nn12)c1ccc(C(F)(F)F)cc1 [Compound 113],Ki,[1],756 nM
same,Ki,[2],187 nM
Cc1cc2nccc(NS(=O)(=O)c3ccc(C(C)(C)C)cc3)n2n1 [Compound 3],Ki,[1],1440 nM
same,Ki,[2],315 nM
"CC(C)(C)c1ccc(S(=O)(=O)Nc2ccc(Cl)c3cc(-c4ccc[n+]([O-])c4)nn23)cc1 [Compound 111, 3-(7-((4-(tert-butyl)phenyl)sulfonamido)-4-chloropyrazolo[1,5-a]pyridin-2-yl)pyridine 1-oxide]",Ki,[1],190 nM
same,Ki,[2],56 nM
CC(C)n1cc(-c2cc3c(C#N)ccc(NS(=O)(=O)c4ccc(C(C)(C)C)cc4)n3n2)cn1 [Compound 191],Ki,[1],9 nM
same,Ki,[2],19 nM
"CC(C)(C)c1ccc(S(=O)(=O)Nc2ccc(C#N)c3cc(-c4cncc(F)c4)nn23)cc1 [Compound 156, 4-(tert-butyl)-N-(4-cyano-2-(5-fluoropyridin-3-yl)pyrazolo[1,5-a]pyridin-7-yl)benzenesulfonamide]",Ki,[1],107 nM
same,Ki,[2],51 nM
Cc1cncc(-c2cc3c(C#N)ccc(NS(=O)(=O)c4ccc(C(C)(C)C)cc4)n3n2)c1 [Compound 200],Ki,[1],12 nM
same,Ki,[2],20 nM
